The ED50 is the dose at which the effect has come halfway, by size or by number of responders.

Like-named read-outs stand apart in the source and are kept apart here.

Experiment [1] relates to established adjuvant arthritis in the rat. The experiment in a line: Adjuvant arthritis test in the rat (Test A), anti-inflammatory activity. As to conditions: for ED50: read-out: ED50, Test A. Type of experiment: in vivo. The source says: For this test, adjuvant arthritis is induced according to the method of Pearson and Wood, "Arthr.
In experiment [2] the test system is LPS (E. coli) induced fever in the rat. The experiment is described as follows: LPS (E. coli) induced fever test in the rat (Test B), anti-pyretic activity. To be noted: for ED50: Escherichia coli, 2 h, read-out: ED50, Test B. Type of experiment: in vivo, rat (Sprague-Dawley). Here is the method:
For this test male rats (Sprague-Dawley) of 130-180 g are fasted overnight. Body temperature is measured the following morning using a rectal probe connected to a telethermometer. […] Body temperature is measured 2 hours later and this value taken as the initial temperature. 6 hours after injection, the test animals receive an oral dosage of the test substance suspended in 0.5% tragacanth or tragacanth alone (control). Body temperature is again measured after a further 2 hours.

In experiment [3] the test system is arthritis pain in the rat. The experiment is described as follows: Arthritis pain test in the rat (Test C), analgesic activity. Type of experiment: in vivo, rat (OFA). As to conditions: for ED50: read-out: ED50, Test C. The method, then:
For this test male rats (OFA) of 110-120 g are treated with 0.1 ml of a Myobacterium smegmatis suspension in paraffin oil (0.6 mg Mycobact./0.1 ml oil) injected i.c. into the tail root. Market arthritis in the hind-paws develops ca. 12 days after treatment. 30 mins. before administration of test-substance, control measurement is performed by flexing the foot joint of the right or left hind-paw using a Statham transducer until volcalisation occurs. […] Test substance is administered orally and the flexion procedure repeated 1, 3 and 5 hours subsequently. The pressure at which vocalisation occurs is noted, the value recorded for each rat at each interval being the average value of three successive measurements. Animals in which the vocalisation threshold is doubled with respect to the control measurement are considered to be protected. The ED50 estimated for each post-treatment time according to the Probit method is taken as the dosage at which 50% of animals are protected. Active agents of the invention are active in this test at dosages of from 3.2 to 100 mg/kg.

The mark [4] stands for this setting: fraction of commonly employed acetylsalicylic acid dosage.

Regarding `COC1=Cc2ccccc2/C(=C\C(=O)O)c2cc(Cl)sc21` [Compound A, [2-chloro-10-methoxy-4H-benzo[4,5]-cyclohepta[1,2-b]thiophen-4-ylidene]acetic acid (E)-isomer], the ED50 was found to be 10 ± 2 mg/kg in experiment [1] (established adjuvant arthritis, rat); 14 ± 5 mg/kg in experiment [2] (oral, rat, dosage at which increase in rectal temperature is 50% of control group); 18 mg/kg in experiment [3] (oral, rat, dosage at which 50% of animals are protected (vocalisation threshold doubled), post-treatment time not stated). Further, in experiment [1] (setting [4]), the “indicated daily dosage relative to acetylsalicylic acid, anti-inflammatory therapy” value was 1/24. In addition, in experiment [2] (setting [4]), the “indicated daily dosage relative to acetylsalicylic acid, anti-pyretic therapy” value was 1/10. In experiment [3] (setting [4]), the “indicated daily dosage relative to acetylsalicylic acid, analgesic therapy” value is 1/5.
`CC(=O)Oc1ccccc1C(=O)O` [Compound B, acetyl-salicylic acid, reference compound]: the ED50 came out at 240 mg/kg in experiment [1] (Rattus norvegicus); 161 mg/kg in experiment [2] (po); 90 mg/kg in experiment [3] (Rattus norvegicus, po).
